Results published in patent US10988459B2 (priority 2015, dated 2021).

target: human RIP1 kinase domain (2-375) (Homo sapiens (Human), UniProt Q13546); assay: biochemical; assay type: biochemical; details: Table 1; apparent Ki (Morrison tight-binding fit); 50 nM RIP1 kinase domain, 50 uM ATP, 2 hours incubation; read-out: RIP1 Ki
How it was run: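 50 nM purified kinase domain from baculovirus-infected insect cells, incubated 2 h with compound in 50 mM Hepes pH 7.5, 30 mM MgCl2, 1 mM DTT, 50 uM ATP, 0.002% Brij-35, 0.5% DMSO. ADP formation read by Transcreener FP at 633 nm excitation. Ki^app fitted with the Morrison tight-binding equation.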

Sequence of human RIP1 kinase domain (2-375) (Q13546 2-375): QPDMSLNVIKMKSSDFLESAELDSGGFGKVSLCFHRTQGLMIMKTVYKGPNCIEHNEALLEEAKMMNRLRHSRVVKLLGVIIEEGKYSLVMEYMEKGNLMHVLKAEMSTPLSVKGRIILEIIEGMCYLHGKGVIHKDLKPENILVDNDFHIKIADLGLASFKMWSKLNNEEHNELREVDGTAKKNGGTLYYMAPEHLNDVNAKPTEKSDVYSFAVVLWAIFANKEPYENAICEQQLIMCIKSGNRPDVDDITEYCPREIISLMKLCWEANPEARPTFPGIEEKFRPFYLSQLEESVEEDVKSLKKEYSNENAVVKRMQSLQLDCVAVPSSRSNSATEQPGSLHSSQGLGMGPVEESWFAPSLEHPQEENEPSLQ

| SMILES | Ki [µM] |
| --- | --- |
| CN1C(=O)[C@@H](NC(=O)c2n[nH]c3c2CN(CC(F)(F)F)CC3)COc2ccccc21 [Example 5, (S)—N-(5-methyl-4-oxo-2,3,4,5-tetrahydrobenzo[b][1,4]oxazepin-3-yl)-5-(2,2,2-trifluoroethyl)-4,5,6,7-tetrahydro-1H-pyrazolo[4,3-c]pyridine-3-carboxamide] | 1.5 |
| CN1C(=O)[C@@H](NC(=O)c2cc3n(n2)CCCN(c2ccccc2)C3)COc2ccccc21 [Example 6, N-[(3S)-5-methyl-4-oxo-2,3-dihydro-1,5-benzoxazepin-3-yl]-5-phenyl-4,6,7,8-tetrahydro pyrazolo[1,5-a][1,4]diazepine-2-carboxamide] | 0.375 |
| CN1C(=O)[C@@H](NC(=O)c2n[nH]c3c2CC(c2ccccc2)OC3)COc2ccccc21 (stereo partly drawn) [Example 9, N—((S)-5-methyl-4-oxo-2,3,4,5-tetrahydrobenzo[b][1,4]oxazepin-3-yl)-5-phenyl-1,4,5,7-tetrahydropyrano[3,4-c]pyrazole-3-carboxamide] | 0.282 |
| CC1Cn2c(cnc2C(=O)N[C@H]2COc3ccccc3N(C)C2=O)CO1 (stereo partly drawn) [Example 10, 6-methyl-N—((S)-5-methyl-4-oxo-2,3,4,5-tetrahydrobenzo[b][1,4]oxazepin-3-yl)-6,8-dihydro-5H-imidazo[5,1-c][1,4]oxazine-3-carboxamide] | 2.6 |
| CC1CCc2cnc(C(=O)N[C@H]3COc4ccccc4N(C)C3=O)n2C1 (stereo partly drawn) [Example 11, 6-methyl-N—((S)-5-methyl-4-oxo-2,3,4,5-tetrahydrobenzo[b][1,4]oxazepin-3-yl)-5,6,7,8-tetrahydroimidazo[1,5-a]pyridine-3-carboxamide] | 0.329 |
| CN1C(=O)[C@@H](NC(=O)c2n[nH]c3c2CCC(c2ccccc2)C3)COc2ccccc21 (stereo partly shown) [Example 12, N-(5-methyl-4-oxo-2,3,4,5-tetrahydrobenzo[b][1,4]oxazepin-3-yl)-6-phenyl-4,5,6,7-tetrahydro-1H-indazole-3-carboxamide] | > 3.1 |
| O=C(N[C@H]1COc2[nH]ncc2NC1=O)c1ccn(Cc2ccc(F)c(F)c2)n1 [Example 16, (S)-1-(3,4-difluorobenzyl)-N-(5-oxo-4,5,6,7-tetrahydro-1H-pyrazolo[3,4-b][1,4]oxazepin-6-yl)-1H-pyrazole-3-carboxamide] | > 10 |
| O=C(N[C@H]1COc2[nH]ncc2NC1=O)c1cn(Cc2ccc(F)c(F)c2)cn1 [Example 17, 1-[(3,4-difluorophenyl)methyl]-N-[(6S)-5-oxo-1,4,6,7-tetrahydropyrazolo[3,4-b][1,4]oxazepin-6-yl]imidazole-4-carboxamide] | > 10 |
| CN1C(=O)[C@@H](NC(=O)c2n[nH]c3c2CC(n2cccn2)CC3)COc2ccccc21 (stereo partly drawn) [Example 20, N—((S)-5-methyl-4-oxo-2,3,4,5-tetrahydrobenzo[b][1,4]oxazepin-3-yl)-5-(1H-pyrazol-1-yl)-4,5,6,7-tetrahydro-1H-indazole-3-carboxamide] | 0.745 |
| CN1C(=O)[C@@H](NC(=O)c2cc3c(cn2)COC3(C)C)COc2ccccc21 [Example 22, (S)-1,1-dimethyl-N-(5-methyl-4-oxo-2,3,4,5-tetrahydrobenzo[b][1,4]oxazepin-3-yl)-1,3-dihydrofuro[3,4-c]pyridine-6-carboxamide] | 0.898 |
| CN1C(=O)[C@@H](NC(=O)c2cc3c(cn2)CCCC3)COc2ccccc21 [Example 23, (S)—N-(5-methyl-4-oxo-2,3,4,5-tetrahydrobenzo[b][1,4]oxazepin-3-yl)-5,6,7,8-tetrahydroisoquinoline-3-carboxamide] | 2 |
| CN1C(=O)[C@@H](NC(=O)c2n[nH]c3c2CC(c2ccccc2)CC3)COc2ccccc21 (stereo partly drawn) [Example 24, N—((S)-5-methyl-4-oxo-2,3,4,5-tetrahydrobenzo[b][1,4]oxazepin-3-yl)-5-phenyl-4,5,6,7-tetrahydro-1H-indazole-3-carboxamide] | 0.0279 |
| CC1Cc2c(C(=O)N[C@H]3COc4[nH]ncc4NC3=O)n[nH]c2CO1 (stereo partly drawn) [Example 25, 5-methyl-N—((S)-5-oxo-4,5,6,7-tetrahydro-1H-pyrazolo[3,4-b][1,4]oxazepin-6-yl)-1,4,5,7-tetrahydropyrano[3,4-c]pyrazole-3-carboxamide] | > 10 |
| CN1C(=O)[C@@H](NC(=O)c2nnc(Cc3ccccc3)[nH]2)CCn2nccc21 [Example 27, (S)-5-benzyl-N-(4-methyl-5-oxo-5,6,7,8-tetrahydro-4H-pyrazolo [1,5-a][1,3]diazepin-6-yl)-4H-1,2,4-triazole-3-carboxamide] | 0.0454 |
| Cc1cc2n(n1)CCC(NC(=O)c1nnc(Cc3ccccc3)[nH]1)C(=O)N2C (stereo not shown) [Example 28, 5-benzyl-N-(2,4-dimethyl-5-oxo-5,6,7,8-tetrahydro-4H-pyrazolo[1,5-a][1,3]diazepin-6-yl)-4H-1,2,4-triazole-3-carboxamide] | 0.137 |
| CN1C(=O)C(NC(=O)c2nnc(Cc3ccccc3)[nH]2)CCn2nc(C3CC3)cc21 (stereo not shown) [Example 29, 5-benzyl-N-(2-cyclopropyl-4-methyl-5-oxo-7,8-dihydro-6H-pyrazolo[1,5-a][1,3]diazepin-6-yl)-4H-1,2,4-triazole-3-carboxamide] | 0.117 |
| CN1C(=O)C(NC(=O)c2nnc(Cc3ccccc3)[nH]2)CCn2nc(C(F)(F)F)cc21 (stereo not shown) [Example 30, 5-benzyl-N-[4-methyl-5-oxo-2-(trifluoromethyl)-7,8-dihydro-6H-pyrazolo[1,5-a][1,3]diazepin-6-yl]-4H-1,2,4-triazole-3-carboxamide] | 0.208 |
| Cc1cnn2c1N(C)C(=O)C(NC(=O)c1nnc(Cc3ccccc3)[nH]1)CC2 (stereo not shown) [Example 31, 5-benzyl-N-(3,4-dimethyl-5-oxo-7,8-dihydro-6H-pyrazolo[1,5-a][1,3]diazepin-6-yl)-4H-1,2,4-triazole-3-carboxamide] | 0.14 |
| CN1C(=O)[C@@H](NC(=O)c2n[nH]c3c2CCCC3)COc2ccccc21 [Example 32, (S)—N-(5-methyl-4-oxo-2,3,4,5-tetrahydrobenzo[b][1,4]oxazepin-3-yl)-4,5,6,7-tetrahydro-1H-indazole-3-carboxamide] | 3.4 |
| CN1C(=O)[C@@H](NC(=O)c2n[nH]c3ccccc23)COc2ccccc21 [Example 33, (S)—N-(5-methyl-4-oxo-2,3,4,5-tetrahydrobenzo[b][1,4]oxazepin-3-yl)-1H-indazole-3-carboxamide] | 3.5 |
| CN1C(=O)[C@@H](NC(=O)c2n[nH]c3c2CC(C(F)(F)F)CC3)COc2ccccc21 (stereo partly drawn) [Example 34, N-((S)-5-methyl-4-oxo-2,3,4,5-tetrahydrobenzo[b][1,4]oxazepin-3-yl)-5-(trifluoromethyl)-4,5,6,7-tetrahydro-1H-indazole-3-carboxamide] | 0.00768 |
| CN1C(=O)[C@@H](NC(=O)c2ncc3ccc(C(F)(F)F)cn23)COc2ccccc21 [Example 35, N-[(3S)-5-methyl-4-oxo-2,3-dihydro-1,5-benzoxazepin-3-yl]-6-(trifluoromethyl)imidazo[1,5-a]pyridine-3-carboxamide] | 0.00874 |
| CN1C(=O)[C@@H](NC(=O)c2ncc3n2CC(C(F)(F)F)CC3)COc2ccccc21 (stereo partly drawn) [Example 36, N—((S)-5-methyl-4-oxo-2,3,4,5-tetrahydrobenzo[b][1,4]oxazepin-3-yl)-6-(trifluoromethyl)-5,6,7,8-tetrahydroimidazo[1,5-a]pyridine-3-carboxamide] | 0.185 |
| CN1C(=O)[C@@H](NC(=O)c2ncn3ccc(C(F)(F)F)cc23)COc2ccccc21 [Example 37, N-[(3S)-5-methyl-4-oxo-2,3-dihydro-1,5-benzoxazepin-3-yl]-7-(trifluoromethyl)imidazo[1,5-a]pyridine-1-carboxamide] | 0.00508 |
| CN1C(=O)[C@@H](NC(=O)c2ncn3c2CC(C(F)(F)F)CC3)COc2ccccc21 (stereo partly drawn) [Example 38, N-[(3S)-5-methyl-4-oxo-2,3-dihydro-1,5-benzoxazepin-3-yl]-7-(trifluoromethyl)-5,6,7,8-tetrahydroimidazo[1,5-a]pyridine-1-carboxamide] | 0.0874 |
| CN1C(=O)[C@@H](NC(=O)c2n[nH]c3c2CCCCC3)COc2ccccc21 [Example 44, (S)-N-(5-methyl-4-oxo-2,3,4,5-tetrahydrobenzo[b][1,4]oxazepin-3-yl)-1,4,5,6,7,8-hexahydrocyclohepta[c]pyrazole-3-carboxamide] | 3 |
| CC1CCc2n[nH]c(C(=O)N[C@H]3CCc4cc(Cl)ccc4NC3=O)c2C1 (stereo partly drawn) [Example 46, N-((S)-7-chloro-2-oxo-2,3,4,5-tetrahydro-1H-benzo[b]azepin-3-yl)-5-methyl-4,5,6,7-tetrahydro-2H-indazole-3-carboxamide] | 0.135 |
| CC(C)(C)C1CCc2[nH]nc(C(=O)N[C@H]3CCc4cc(Cl)ccc4NC3=O)c2C1 (stereo partly drawn) [Example 47, 5-(tert-butyl)-N-((S)-7-chloro-2-oxo-2,3,4,5-tetrahydro-1H-benzo[b]azepin-3-yl)-4,5,6,7-tetrahydro-1H-indazole-3-carboxamide] | 0.35 |
| CN1C(=O)[C@@H](NC(=O)c2n[nH]c3c2CCC3)COc2ccccc21 [Example 48, (S)-N-(5-methyl-4-oxo-2,3,4,5-tetrahydrobenzo[b][1,4]oxazepin-3-yl)-1,4,5,6-tetrahydrocyclopenta[c]pyra7.ole-3-carboxamide] | 8.6 |

same assay, conditions: read-out: RIP1 Ki

| SMILES | Ki [µM] |
| --- | --- |
| CN1C(=O)[C@@H](NC(=O)c2n[nH]c3c2CC(C)(C)CC3)COc2ccccc21 [Example 18, 5,5-dimethyl-N-[(3S)-5-methyl-4-oxo-2,3-dihydro-1,5-benzoxazepin-3-yl]-1,4,6,7-tetrahydroindazole-3-carboxamide] | 0.415 |
| CC1CCc2n[nH]c(C(=O)N[C@H]3COc4ccccc4N(C)C3=O)c2C1 (stereo partly drawn) [Example 45, 5-methyl-N-((S)-5-methyl-4-oxo-2,3,4,5-tetrahydrobenzo[b][1,4]oxazepin-3-yl)-4,5,6,7-tetrahydro-2H-indazole-3-carboxamide] | 0.0626 |
